Columns and labels:
Fes(h) = Fes(h) (Homo sapiens, UniProt P07332); experiment: Protein kinase inhibition assay; assay type: biochemical; conditions: read-out: percent residual activity of Fes(h)
Protocol: (§1) Certain compounds were tested for activity in protein kinase inhibition assays. All substrates were dissolved and diluted to working stocks in de-ionized water, apart from histone H1 (10× working stock in 20 mM MOPS pH 7.0), PDKtide (10× working stock in 50 mM Tris pH 7.0) ATF2 (which is typically stored at a 20× working stock in 50 mM Tris pH 7.5, 150 mM NaCl, 0.1 mM EGTA, 0.03% Brij-35, 50% glycerol, 1 mM benzamidine, 0.2 mM PMSF and 0.1% R-mercaptoethanol), KKLNRTLSFAEPG (SEQ ID NO:203) and RRRLSFAEPG (SEQ ID NO:204) (50 mM HEPES pH 7.4) and GGEEEEYFELVKKKK (SEQ ID NO:205) (20 mM MOPS pH 7.0). All kinases were pre-diluted to a 10× working concentration prior to addition into the assay. The composition of the dilution buffer for each kinase is detailed below.
(§2) In a final reaction volume of 25 μl, Fes (h) (5-10 mU) is incubated with 8 mM MOPS pH 7.0, 0.2 mM EDTA, 0.1 mg/ml poly(Glu, Tyr) 4:1, 10 mM MgAcetate and [y-33P-ATP] (specific activity approx. 500 cpm/pmol, concentration as required). The reaction is initiated by the addition of the MgATP mix. After incubation for 40 minutes at room temperature, the reaction is stopped by the addition of 5 μl of a 3% phosphoric acid solution. 10 μl of the reaction is then spotted onto a Filtermat A and washed three times for 5 minutes in 75 mM phosphoric acid and once in methanol prior to drying and scintillation counting.

Flt1(h) = Flt1(h) (Homo sapiens, UniProt P17948); experiment: Protein kinase inhibition assay; assay type: biochemical; conditions: read-out: percent residual activity of Flt1(h)
Protocol: as §1
as §2, with “Flt1” for “Fes”, “250 μM KKKSPGEYVNIEFG (SEQ ID NO:207),” for “0.1 mg/ml poly(Glu, Tyr) 4:1,”, “[gamma-33P-ATP]” for “[y-33P-ATP]”, “P30 filtermat” for “Filtermat A”

GRK5(h) = GRK5(h) (Homo sapiens, UniProt P34947); experiment: Protein kinase inhibition assay; assay type: biochemical; conditions: read-out: percent residual activity of GRK5(h)
Protocol: as §1

Pim-2(h) = Pim-2(h) (Homo sapiens, UniProt Q9P1W9); experiment: Protein kinase inhibition assay; assay type: biochemical; conditions: read-out: percent residual activity of Pim-2(h)
Protocol: as §1

Flt4(h) = Flt4(h) (Homo sapiens, UniProt P35916); experiment: Protein kinase inhibition assay; assay type: biochemical; conditions: read-out: percent residual activity of Flt4(h)
Chain of Flt4(h) (P35916 25-1363): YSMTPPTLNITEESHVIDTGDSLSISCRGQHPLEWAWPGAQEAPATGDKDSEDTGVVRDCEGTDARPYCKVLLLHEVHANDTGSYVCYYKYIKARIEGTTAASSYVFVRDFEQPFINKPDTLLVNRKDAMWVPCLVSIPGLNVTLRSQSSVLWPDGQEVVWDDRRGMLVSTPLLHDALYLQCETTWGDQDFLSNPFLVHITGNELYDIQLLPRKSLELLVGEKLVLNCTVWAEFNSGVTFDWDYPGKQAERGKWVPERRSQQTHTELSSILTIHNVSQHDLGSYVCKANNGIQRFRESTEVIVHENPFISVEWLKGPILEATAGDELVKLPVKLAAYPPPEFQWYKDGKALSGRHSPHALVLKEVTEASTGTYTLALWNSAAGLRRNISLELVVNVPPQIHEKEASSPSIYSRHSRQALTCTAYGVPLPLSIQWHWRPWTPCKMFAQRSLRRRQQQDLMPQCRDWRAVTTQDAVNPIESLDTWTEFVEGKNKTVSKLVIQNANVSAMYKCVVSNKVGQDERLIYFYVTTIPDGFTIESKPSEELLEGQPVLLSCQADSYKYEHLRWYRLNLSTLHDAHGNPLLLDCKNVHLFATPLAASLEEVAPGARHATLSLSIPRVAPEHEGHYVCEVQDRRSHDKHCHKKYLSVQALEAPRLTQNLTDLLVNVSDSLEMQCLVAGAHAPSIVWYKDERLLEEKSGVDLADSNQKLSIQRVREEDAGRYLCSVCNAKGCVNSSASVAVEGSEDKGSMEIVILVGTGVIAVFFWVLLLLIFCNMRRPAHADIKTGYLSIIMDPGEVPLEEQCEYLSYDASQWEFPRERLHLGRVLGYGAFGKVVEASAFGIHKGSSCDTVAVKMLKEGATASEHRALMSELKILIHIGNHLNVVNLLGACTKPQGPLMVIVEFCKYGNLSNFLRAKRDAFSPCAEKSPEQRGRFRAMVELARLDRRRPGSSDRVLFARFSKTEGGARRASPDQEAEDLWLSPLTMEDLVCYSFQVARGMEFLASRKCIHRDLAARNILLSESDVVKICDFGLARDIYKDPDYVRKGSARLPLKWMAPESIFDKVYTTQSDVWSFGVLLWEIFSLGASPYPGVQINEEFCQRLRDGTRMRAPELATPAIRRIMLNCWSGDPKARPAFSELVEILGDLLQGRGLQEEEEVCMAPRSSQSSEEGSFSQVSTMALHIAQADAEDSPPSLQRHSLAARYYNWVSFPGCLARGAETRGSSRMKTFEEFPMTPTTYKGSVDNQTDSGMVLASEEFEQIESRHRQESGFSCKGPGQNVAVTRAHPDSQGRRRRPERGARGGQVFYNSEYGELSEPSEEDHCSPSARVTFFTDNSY
Protocol: as §1

EphA1(h) = EphA1(h) (Homo sapiens, UniProt P21709); experiment: Protein kinase inhibition assay; assay type: biochemical; conditions: read-out: percent residual activity of EphA1(h)
Chain of EphA1(h) (P21709 26-976): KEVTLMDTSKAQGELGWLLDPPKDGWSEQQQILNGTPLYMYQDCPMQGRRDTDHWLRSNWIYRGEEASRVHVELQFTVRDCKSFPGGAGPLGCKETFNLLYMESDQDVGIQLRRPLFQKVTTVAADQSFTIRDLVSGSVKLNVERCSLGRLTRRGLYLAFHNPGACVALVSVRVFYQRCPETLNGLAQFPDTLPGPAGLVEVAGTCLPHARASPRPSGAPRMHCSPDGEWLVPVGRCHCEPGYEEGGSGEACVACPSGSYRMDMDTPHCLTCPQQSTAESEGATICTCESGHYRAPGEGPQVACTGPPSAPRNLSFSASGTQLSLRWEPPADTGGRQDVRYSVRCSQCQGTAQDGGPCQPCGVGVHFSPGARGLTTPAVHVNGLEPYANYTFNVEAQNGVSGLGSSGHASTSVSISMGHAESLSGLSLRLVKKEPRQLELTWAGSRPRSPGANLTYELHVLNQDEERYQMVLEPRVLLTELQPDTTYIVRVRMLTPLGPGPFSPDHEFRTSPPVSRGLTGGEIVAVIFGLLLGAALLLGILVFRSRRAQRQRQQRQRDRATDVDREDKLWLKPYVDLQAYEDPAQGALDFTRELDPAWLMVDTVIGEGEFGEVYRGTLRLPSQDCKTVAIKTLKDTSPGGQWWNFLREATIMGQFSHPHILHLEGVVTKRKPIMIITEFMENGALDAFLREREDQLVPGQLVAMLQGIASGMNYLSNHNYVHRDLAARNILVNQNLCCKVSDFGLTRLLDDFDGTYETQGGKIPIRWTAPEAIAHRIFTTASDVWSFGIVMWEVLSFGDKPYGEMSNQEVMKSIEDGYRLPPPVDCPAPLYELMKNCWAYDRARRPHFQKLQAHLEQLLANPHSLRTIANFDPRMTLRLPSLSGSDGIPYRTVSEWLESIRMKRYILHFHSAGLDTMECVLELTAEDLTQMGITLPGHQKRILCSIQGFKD
Protocol: as §1

DAPK1(h) = DAPK1(h) (Homo sapiens, UniProt P53355); experiment: Protein kinase inhibition assay; assay type: biochemical; conditions: read-out: percent residual activity of DAPK1(h)
Protocol: as §1

DCAMKL2(h) = DCAMKL2(h) (Homo sapiens, UniProt Q8N568); experiment: Protein kinase inhibition assay; assay type: biochemical; conditions: read-out: percent residual activity of DCAMKL2(h)
Chain of DCAMKL2(h) (Q8N568 whole entry): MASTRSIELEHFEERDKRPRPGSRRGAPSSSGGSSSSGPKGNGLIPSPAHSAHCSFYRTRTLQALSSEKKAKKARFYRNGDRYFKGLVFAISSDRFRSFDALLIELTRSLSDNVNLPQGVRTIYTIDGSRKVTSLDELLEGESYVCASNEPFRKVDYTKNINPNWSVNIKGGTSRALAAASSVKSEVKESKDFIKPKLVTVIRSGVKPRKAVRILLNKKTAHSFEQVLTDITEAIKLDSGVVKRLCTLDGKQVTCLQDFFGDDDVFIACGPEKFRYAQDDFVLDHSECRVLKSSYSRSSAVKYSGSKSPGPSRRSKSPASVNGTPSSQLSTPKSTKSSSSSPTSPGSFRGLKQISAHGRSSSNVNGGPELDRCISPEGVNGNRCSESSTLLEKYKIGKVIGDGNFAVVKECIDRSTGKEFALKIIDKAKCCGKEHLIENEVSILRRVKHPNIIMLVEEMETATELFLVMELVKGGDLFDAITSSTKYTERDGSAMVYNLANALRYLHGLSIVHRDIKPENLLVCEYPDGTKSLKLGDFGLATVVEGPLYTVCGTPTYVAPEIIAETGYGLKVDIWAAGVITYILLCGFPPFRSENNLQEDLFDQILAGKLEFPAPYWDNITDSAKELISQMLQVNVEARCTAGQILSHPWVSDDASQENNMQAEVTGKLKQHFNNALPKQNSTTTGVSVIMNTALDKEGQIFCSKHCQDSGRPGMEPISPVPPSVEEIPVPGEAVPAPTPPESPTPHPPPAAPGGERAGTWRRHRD
Protocol: as §1

EphA8(h) = EphA8(h) (Homo sapiens, UniProt P29322); experiment: Protein kinase inhibition assay; assay type: biochemical; conditions: read-out: percent residual activity of EphA8(h)
Protocol: as §1

CK1γ2(h) = CK1γ2(h) (Homo sapiens, UniProt P78368); experiment: Protein kinase inhibition assay; assay type: biochemical; conditions: read-out: percent residual activity of CK1γ2(h)
Protocol: as §1

EGFR(T790M)(h) = EGFR(T790M)(h) (Homo sapiens, UniProt P00533, T790M); experiment: Protein kinase inhibition assay; assay type: biochemical; conditions: read-out: percent residual activity of EGFR(T790M)(h)
Chain of EGFR(T790M)(h) (P00533 25-1210 T790M): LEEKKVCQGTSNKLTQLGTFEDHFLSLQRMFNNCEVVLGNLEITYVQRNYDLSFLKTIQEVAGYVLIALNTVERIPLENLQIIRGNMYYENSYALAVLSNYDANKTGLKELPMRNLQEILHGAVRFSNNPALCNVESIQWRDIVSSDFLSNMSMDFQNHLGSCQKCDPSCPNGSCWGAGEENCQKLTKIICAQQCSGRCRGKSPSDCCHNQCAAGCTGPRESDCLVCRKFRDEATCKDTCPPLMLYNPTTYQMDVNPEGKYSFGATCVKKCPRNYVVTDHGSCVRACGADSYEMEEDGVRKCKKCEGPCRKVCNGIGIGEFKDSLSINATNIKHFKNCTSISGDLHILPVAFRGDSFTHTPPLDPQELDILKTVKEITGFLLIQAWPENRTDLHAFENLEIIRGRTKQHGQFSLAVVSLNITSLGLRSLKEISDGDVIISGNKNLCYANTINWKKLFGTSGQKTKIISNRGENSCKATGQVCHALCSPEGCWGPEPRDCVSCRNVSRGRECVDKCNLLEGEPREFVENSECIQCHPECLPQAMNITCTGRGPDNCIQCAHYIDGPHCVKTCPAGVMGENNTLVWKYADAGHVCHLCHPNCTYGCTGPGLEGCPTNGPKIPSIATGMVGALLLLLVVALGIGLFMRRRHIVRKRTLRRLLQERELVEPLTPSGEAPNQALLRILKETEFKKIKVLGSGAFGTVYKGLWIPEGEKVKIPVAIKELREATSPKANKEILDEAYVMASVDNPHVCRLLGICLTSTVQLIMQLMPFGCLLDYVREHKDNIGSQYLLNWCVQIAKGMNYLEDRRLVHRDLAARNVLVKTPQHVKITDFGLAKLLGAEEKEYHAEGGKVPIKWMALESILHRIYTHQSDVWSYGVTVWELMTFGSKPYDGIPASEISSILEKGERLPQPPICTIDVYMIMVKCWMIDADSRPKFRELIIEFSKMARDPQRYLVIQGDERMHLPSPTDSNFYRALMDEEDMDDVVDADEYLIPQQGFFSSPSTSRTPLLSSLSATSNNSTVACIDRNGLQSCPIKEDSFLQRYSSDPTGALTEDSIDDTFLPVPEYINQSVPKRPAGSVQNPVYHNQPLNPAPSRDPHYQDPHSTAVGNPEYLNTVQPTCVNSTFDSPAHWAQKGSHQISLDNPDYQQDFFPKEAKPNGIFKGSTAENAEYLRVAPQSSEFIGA
Protocol: as §1

PhKγ2(h) = PhKγ2(h) (Homo sapiens, UniProt P15735); experiment: Protein kinase inhibition assay; assay type: biochemical; conditions: read-out: percent residual activity of PhKγ2(h)
Protocol: as §1

CaMKIIβ(h) = CaMKIIβ(h) (Homo sapiens, UniProt Q13554); experiment: Protein kinase inhibition assay; assay type: biochemical; conditions: read-out: percent residual activity of CaMKIIβ(h)
Protocol: as §1

STK33(h) = STK33(h) (Homo sapiens, UniProt Q9BYT3); experiment: Protein kinase inhibition assay; assay type: biochemical; conditions: read-out: percent residual activity of STK33(h)
Protocol: as §1

HCT116 cells = experiment: DNA synthesis (BrdU-ELISA); assay type: cell-based; conditions: for A-1 a concentration at which many of the cells were dead
Protocol: Effects of compound A-1 and compound B-1 on DNA synthesis, RNA synthesis and protein synthesis were determined in HCT116 cells. HCT116 cells were plated overnight at 100,000 cells per mL. Next day cells were treated with increasing amounts of either compound A-1 or compound B-1 followed by one hour incubation with BrdU label (from a BrdU Cell proliferation Assay Kit, Calbiochem) to monitor DNA synthesis; […] of ^3H-uridine to monitor total RNA synthesis; […] of ^3H-methionine to monitor protein synthesis or plain media to monitor RNA Polymerase II-dependent RNA synthesis. DNA synthesis was assessed using a BrdU-ELISA (BrdU Cell proliferation Assay Kit, Calbiochem). To measure total RNA synthesis, total RNA from treated cells was isolated with a RNease kit (QIAGEN), levels of total RNA were assessed with Ribogreen reagent (Invitrogen) and the newly synthesized tritiated RNA was measured in a scintillation Counter (Perkin Elmer). To measure effects on protein synthesis, cells were lysed in a RIPA buffer, and total protein was precipitated with 10% TCA on a glass-filters. Newly synthesized tritiated protein was measured in a scintillation Counter (Perkin Elmer). Effects of drugs on […] RNA synthesis were assessed by monitoring levels of a c-myc mRNA, which has a relatively short half-life of approximately 30 minutes, by Taqman qRT-PCR (ABI).

Chain of Fes(h) (P07332 whole entry): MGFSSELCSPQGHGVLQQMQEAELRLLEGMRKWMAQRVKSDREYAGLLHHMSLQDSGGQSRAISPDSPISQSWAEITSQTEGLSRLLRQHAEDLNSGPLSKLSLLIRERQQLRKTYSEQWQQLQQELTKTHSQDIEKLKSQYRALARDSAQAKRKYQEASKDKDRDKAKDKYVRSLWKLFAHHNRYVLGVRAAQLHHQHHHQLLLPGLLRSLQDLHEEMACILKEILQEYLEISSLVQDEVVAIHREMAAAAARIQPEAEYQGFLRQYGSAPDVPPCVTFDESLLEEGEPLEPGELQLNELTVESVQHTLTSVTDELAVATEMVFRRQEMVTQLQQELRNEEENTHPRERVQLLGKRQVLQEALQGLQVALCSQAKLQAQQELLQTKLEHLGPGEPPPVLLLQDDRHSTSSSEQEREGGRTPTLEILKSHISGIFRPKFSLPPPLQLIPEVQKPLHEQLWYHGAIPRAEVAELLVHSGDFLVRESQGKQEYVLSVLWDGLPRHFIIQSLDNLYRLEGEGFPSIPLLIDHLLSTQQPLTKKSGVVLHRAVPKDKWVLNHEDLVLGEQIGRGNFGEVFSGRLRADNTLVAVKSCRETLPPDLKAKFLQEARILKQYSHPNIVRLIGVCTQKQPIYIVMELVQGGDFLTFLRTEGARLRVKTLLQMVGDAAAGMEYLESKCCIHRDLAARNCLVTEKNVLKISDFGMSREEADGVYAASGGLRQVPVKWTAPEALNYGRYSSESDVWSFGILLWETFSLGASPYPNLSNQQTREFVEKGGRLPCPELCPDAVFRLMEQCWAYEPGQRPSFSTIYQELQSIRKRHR

Structure (SMILES)	remaining activity at 2.5 µM (Fes(h)) [%]	remaining activity at 2.5 µM (Flt1(h)) [%]	remaining activity at 2.5 µM (GRK5(h)) [%]	remaining activity at 2.5 µM (Pim-2(h)) [%]	remaining activity at 2.5 µM (Flt4(h)) [%]	remaining activity at 2.5 µM (EphA1(h)) [%]	remaining activity at 2.5 µM (DAPK1(h)) [%]	remaining activity at 2.5 µM (DCAMKL2(h)) [%]	remaining activity at 2.5 µM (EphA8(h)) [%]	remaining activity at 2.5 µM (CK1γ2(h)) [%]	remaining activity at 2.5 µM (EGFR(T790M)(h)) [%]	remaining activity at 2.5 µM (PhKγ2(h)) [%]	remaining activity at 2.5 µM (CaMKIIβ(h)) [%]	remaining activity at 2.5 µM (STK33(h)) [%]	concentration that significantly reduced DNA synthesis (HCT116 cells) [µM]
CN1CCCC1CCNC(=O)c1cn2c3c(c(N4CCC(c5cnccn5)C4)c(F)cc3c1=O)Oc1cc3ccccc3cc1-2 (stereo not drawn) [Compound A-1]	82	78	95	77	70	69	40	48	100	96	91	46	101	90	10
CC(=O)N1CCN(c2ccc3c(=O)c(C(=O)NCCN4CCCC4)c4n(C)c5ccccc5n4c3n2)CC1 [Compound B-1]	101	106	99	110	103	96	89	111	100	103	114	118	100	102	30
